Read-outs that look alike come from different tables or passages of the source.
Assays:
[1] = test system: Male Sprague-Dawley (SD) rats; test: Food intake studies (experiments A, B, C), food intake and body weight; format: in vivo, rat; conditions: for food intake, difference to rats treated with Compound 3: 5 mg kg-1 each
Experimental: All experimental protocols were approved by internal guidelines. Different concentrations of drugs were administered I.P. in a 1 ml kg-1 (milliliters per kilogram) volume, except M6G, which was given s.c. (subcutaneously) in a 0.1 ml kg-1 volume.
Food and water were presented in inverted glass bottles that attached to the outside of the cage. Food was available for 18 h each day starting at 16:00 h (12 h light-dark cycle; lights off 16:00 h).
Intake measurements were taken at 1.5 h, 3 h, 5 h, and 18 h after food became available.
Rats were habituated to testing and handling procedures as before. […] Food intake and body weight were monitored daily.
On the day of the experiment each rat received only a single injection, 30 min later food was made available as described in experiment 1. Food intake was measured 0.5, 1.5, 3, 5, and 18 h after administration. Food intake and body weight were monitored daily for five days after the experiment to assess the sustained effect of a single administration of each compound.

[2] = molecular target: CB1 receptor (Rattus norvegicus, UniProt P20272); test: Thermoregulation assay: hypothermia induced by the CB1 agonist CP55,940; format: in vivo; set-up: antagonized CB1 receptors in vivo; from tissue; host or cells: whole animal, male SD rats; conditions: 5 mg kg-1 pre-treatment 45 min before CP55,940 0.3 mg kg-1; compared with vehicle
CB1 receptor, sequence (P20272 whole entry): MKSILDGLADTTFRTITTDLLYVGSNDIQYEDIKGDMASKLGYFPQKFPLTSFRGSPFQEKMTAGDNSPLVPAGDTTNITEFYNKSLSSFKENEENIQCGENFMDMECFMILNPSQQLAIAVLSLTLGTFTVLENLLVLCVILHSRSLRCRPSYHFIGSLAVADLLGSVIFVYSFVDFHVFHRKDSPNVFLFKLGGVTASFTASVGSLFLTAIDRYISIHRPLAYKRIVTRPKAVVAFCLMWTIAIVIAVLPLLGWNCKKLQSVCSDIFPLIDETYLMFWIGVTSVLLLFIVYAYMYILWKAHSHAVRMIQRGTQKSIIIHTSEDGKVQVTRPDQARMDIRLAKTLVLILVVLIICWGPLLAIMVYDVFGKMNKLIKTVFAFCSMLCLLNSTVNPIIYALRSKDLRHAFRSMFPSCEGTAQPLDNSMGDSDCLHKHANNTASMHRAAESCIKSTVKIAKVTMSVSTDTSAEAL
Experimental: Briefly, silicone coated temperature data loggers (SubCue Inc, Calgary, Canada) were surgically implanted into the abdominal cavity of male SD (450-500 g) rats under isoflurane anesthesia (4% induction; 2-2.5% maintenance). Rats were allowed to recover for 3 days before being acclimatized to testing and handling procedures for an additional seven days. Core body temperature readings were sampled every 5 min for 300 min during the course of each experiment.

[3] = molecular target: T1, hCB1 (Homo sapiens, UniProt P21554); test: Forskolin-stimulated cAMP assay; format: cell-based; conditions: HEK293 cells transfected with human CB1 receptors
T1 construct: expressed in transfected cells; host or cells: HEK293
T1 sequence (P21554 whole entry): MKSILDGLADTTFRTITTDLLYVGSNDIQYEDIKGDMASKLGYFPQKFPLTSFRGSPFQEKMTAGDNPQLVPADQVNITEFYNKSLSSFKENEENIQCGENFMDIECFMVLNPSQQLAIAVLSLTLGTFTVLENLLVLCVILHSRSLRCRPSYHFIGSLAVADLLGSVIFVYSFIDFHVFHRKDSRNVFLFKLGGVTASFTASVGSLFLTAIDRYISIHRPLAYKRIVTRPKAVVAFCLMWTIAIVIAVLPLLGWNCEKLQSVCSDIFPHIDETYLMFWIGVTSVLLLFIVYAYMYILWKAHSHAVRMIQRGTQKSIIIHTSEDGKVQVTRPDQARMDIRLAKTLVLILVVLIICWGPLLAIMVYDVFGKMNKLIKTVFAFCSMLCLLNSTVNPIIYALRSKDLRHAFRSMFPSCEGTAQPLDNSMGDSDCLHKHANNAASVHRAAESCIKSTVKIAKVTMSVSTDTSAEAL
Experimental: Intracellular cAMP levels were measured with a competitive protein-binding assay using intact HEK293 cells expressing hCB1 or hCB2 and a cAMP immunoassay kit from Sigma (St. Louis, Mo.). In short, forskolin stimulated cells were incubated with various concentrations of compound, cAMP anti-body and cAMP conjugate for 2 hours at ambient temperature. The reaction was stopped by emptying the wells followed by the addition of p-NPP substrate and incubation for 1 hour. […] The results were expressed as percent inhibition of forskolin-stimulated cAMP accumulation and EC50 curves were generated with the use of GraphPad Prism software.

[4] = test system: Rats; test: Operant lever pressing on FR5 schedules; format: in vivo, rat; conditions: for ED50: Rattus norvegicus
Experimental: Following the initial training period, rats (n=8 each group) were injected with drug and then tested once a week on Thursdays. For experiments 1 and 2, Compound 3 or Compound 2, respectively were injected IP at doses of 1.0, 2.0, 4.0, or 8.0 mg/kg or vehicle. Pretreatment time for these two experiments was 30 min. For experiments 3 and 4, rats were given drug or vehicle orally 1 hour before testing. In experiment 3, rats were given vehicle or 8.0, 16.0, or 32.0 mg/kg Compound 3. In experiment 4, rats received vehicle or Compound 2 at doses of 4.0, 8.0, or 16.0 mg/kg. All doses were given in a randomized order using a repeated measures design.

Row | Structure (SMILES) | acute effect on food intake compared with vehicle ([1]; experiment A, 5 mg kg-1 I.P. single dose) | food intake, difference to rats treated with Compound 3 ([1]; experiment A, 5 h) | food intake, difference to rats treated with Compound 3 ([1]; experiment A, 18 h) | early effect on food intake at each time point ([1]; experiment C, 5 mg kg-1 single dose) | weight gain for several days after the experiment ([1]; experiment C, single administration (Compound 1 5 mg kg-1; Compound 3 10, 20 mg kg-1)) | hypothermic effect of CP55,940 [2] | effect on forskolin stimulated cAMP production [3] | suppression of FR5 responding compared to vehicle ([4]; IP 1.0, 2.0, 4.0, 8.0 mg/kg) | ED50 ([4]; IP, pretreatment 30 min, read-out: ED50 for the effect on FR5 responding) | ED50 ([4]; oral, 1 hour before testing, read-out: ED50 for suppression of lever pressing on FR5) | change in lever pressing on FR5 compared to vehicle ([4]; oral, 1 hour before testing (Compound 3 8.0-32.0 mg/kg; Compound 2 4.0-16.0 mg/kg))
1 | Cc1c(C(=O)NN2CCCCC2)nn(-c2ccc(Cl)cc2Cl)c1-c1ccc(I)cc1 [Compound 1, N-(Piperidin-1-yl)-5-(4-iodophenyl)-1-(2,4-dichlorophenyl)-4-methyl-1H-pyrazole-3-carboxamide, reference compound] | significantly reduced food intake | -15.5 g | -26.1 g | significantly reduced food intake | significantly reduced | significantly attenuated |  |  |  |  | 
2 | Cc1c(C(=O)NN2CCOCC2)nn(-c2ccc(Cl)cc2Cl)c1-c1ccc(C#CCCC#N)cc1 [Compound 2] |  |  |  |  |  |  | no effect | significantly suppressed | 0.576 mg/kg | 1.49 mg/kg | dose-dependent decrease
